Earlier results in patent US6989159B2 (JDS Pharmaceuticals, LLC, priority 2000, dated 2006).

## O=C([O-])[O-].[Li+].[Li+] [Lithium carbonate]
In vivo
  eliminated through urine: More than 95%
  reabsorbed in the proximal convoluted tubule: 80%
  time to complete absorption in the gastrointestinal tract: about 8 hours
Steady state
  concentration in the liquor compared with the plasmatic one: below 50%
  plasma half-life at the steady state: 20 to 24 h
